From PubChem BioAssay (NCI)
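48-hour exposure; five concentrations; linearly interpolated endpoints. GI50 marks 50% less growth. At the TGI there is no net growth.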

What was measured:
Assay in all cases: NCI anticancer screen, dose series, 48 h
[1] = system: A549 NSCLC
[2] = system: IGROV1 ovarian
[3] = system: SW-620 colon
[4] = system: SK-MEL-2 melanoma
[5] = system: HCT-116 colon
[6] = system: HCT-15 colon
[7] = system: MALME-3M melanoma
[8] = system: UACC-257 melanoma
[9] = system: HL-60(TB) leukemia
[10] = system: NCI-H226 lung
[11] = system: MCF7 breast
[12] = system: ACHN renal
[13] = system: 786-0 renal
[14] = system: NCI/ADR-RES ovarian
[15] = system: MOLT-4 leukemia
[16] = system: HS 578T breast
[17] = system: SK-MEL-28 melanoma
[18] = system: BT-549 breast
[19] = system: SK-OV-3 ovarian
[20] = system: UO-31 renal
[21] = system: HCC-2998 colon
[22] = system: U251 CNS
[23] = system: OVCAR-5 ovarian
[24] = system: MDA-MB-231 breast
[25] = system: MDA-MB-468 breast
[26] = system: TK-10 renal
[27] = system: SF-268 CNS
[28] = system: NCI-H522 lung
[29] = system: OVCAR-3 ovarian
[30] = system: SN12C renal
[31] = system: HT29 colon
[32] = system: PC-3 prostate
[33] = system: SK-MEL-5 melanoma
[34] = system: K-562 leukemia
[35] = system: KM12 colon
[36] = system: HOP-92 NSCLC
[37] = system: EKVX NSCLC
[38] = system: LOX IMVI melanoma
[39] = system: UACC-62 melanoma
[40] = system: SNB-75 CNS
[41] = system: A498 renal
[42] = system: SF-539 CNS
[43] = system: NCI-H460 lung
[44] = system: HOP-62 NSCLC
[45] = system: SF-295 CNS
[46] = system: OVCAR-8 ovarian
[47] = system: M14 melanoma
[48] = system: RXF 393 renal
[49] = system: SR leukemia
[50] = system: OVCAR-4 ovarian
[51] = system: MDA-MB-435
[52] = system: RPMI-8226 leukemia
[53] = system: NCI-H23 lung
[54] = system: DU-145 prostate
[55] = system: COLO 205 colon
[56] = system: CCRF-CEM leukemia
[57] = system: SNB-19 CNS
[58] = system: T-47D breast
[59] = system: CAKI-1 renal

`Cc1cc(C(NC(=O)C2CC3(CC(Nc4cccc5c4C(=O)N(C4CCC(=O)NC4=O)C5=O)C3)C2)c2ccc3c(c2)OC(F)(F)O3)c(O)c2ncccc12` (stereo not given) was tested, and the GI50 [1] was 0.418 µM, the TGI [1] was > 100 µM and the GI50 [2] was 0.313 µM. For the same compound, the TGI [2] was > 32.3 µM, the GI50 [3] was 0.531 µM and the TGI [3] was > 100 µM. The GI50 [4] was 0.375 µM, the TGI [4] was > 100 µM and the GI50 [5] was 0.42 µM. For the same compound, the TGI [5] was > 100 µM, the GI50 [6] was 0.307 µM and the TGI [6] was > 100 µM. The GI50 [7] was 0.522 µM, the TGI [7] was > 25.4 µM and the GI50 [8] was 0.718 µM. The TGI [8] was > 100 µM, the GI50 [9] was 0.314 µM and the GI50 [10] was 0.434 µM. The TGI [10] was > 23.9 µM, the GI50 [11] was 0.303 µM and the TGI [11] was > 100 µM. For the same compound, the GI50 [12] was 0.359 µM, the TGI [12] was > 100 µM and the GI50 [13] was 0.452 µM. The TGI [13] was > 100 µM, the GI50 [14] was 1.6 µM and the TGI [14] was 15.3 µM. The GI50 [15] was 0.344 µM, the TGI [15] was > 100 µM and the GI50 [16] was 0.433 µM. The TGI [16] was > 100 µM, the GI50 [17] was 0.405 µM and the TGI [17] was > 100 µM. For the same compound, the GI50 [18] was 0.224 µM, the TGI [18] was > 100 µM and the GI50 [19] was 0.344 µM. The TGI [19] was > 22.3 µM, the GI50 [20] was 0.295 µM and the TGI [20] was 2.29 µM. The GI50 [21] was 0.34 µM, the GI50 [22] was 0.21 µM and the TGI [22] was > 100 µM. The GI50 [23] was 0.447 µM, the TGI [23] was > 100 µM and the GI50 [24] was 0.44 µM. The TGI [24] was > 42.7 µM, the GI50 [25] was 0.473 µM and the TGI [25] was 3.13 µM. For the same compound, the GI50 [26] was 0.474 µM, the TGI [26] was > 100 µM and the GI50 [27] was 0.42 µM. The TGI [27] was > 100 µM, the GI50 [28] was 0.399 µM and the TGI [28] was > 100 µM. For the same compound, the GI50 [29] was 0.376 µM, the TGI [29] was > 100 µM and the GI50 [30] was 0.349 µM. The TGI [30] was > 100 µM, the GI50 [31] was 0.474 µM and the TGI [31] was > 100 µM. The GI50 [32] was 0.275 µM, the TGI [32] was > 100 µM and the GI50 [33] was 0.226 µM. The TGI [33] was 0.562 µM, the GI50 [34] was 0.334 µM and the TGI [34] was > 100 µM. The GI50 [35] was 0.468 µM, the TGI [35] was > 100 µM and the GI50 [36] was 0.382 µM. For the same compound, the TGI [36] was > 100 µM, the GI50 [37] was 0.349 µM and the TGI [37] was > 40.6 µM. It also gave a GI50 [38] of 0.272 µM, a GI50 [39] of 0.282 µM and a TGI [39] of 1.14 µM. For the same compound, the GI50 [40] was 0.289 µM, the TGI [40] was > 100 µM and the GI50 [41] was > 100 µM. For the same compound, the TGI [41] was > 100 µM, the GI50 [42] was 0.378 µM and the TGI [42] was 3.18 µM. The GI50 [43] was 0.198 µM, the TGI [43] was > 100 µM and the GI50 [44] was 0.392 µM. The TGI [44] was > 100 µM, the GI50 [45] was 0.275 µM and the TGI [45] was > 100 µM. For the same compound, the GI50 [46] was 0.364 µM, the TGI [46] was > 100 µM and the GI50 [47] was 0.411 µM. For the same compound, the TGI [47] was 2.66 µM, the GI50 [48] was 0.502 µM and the TGI [48] was > 30.7 µM. The GI50 [49] was 0.34 µM, the TGI [49] was > 100 µM and the GI50 [50] was 0.476 µM. The TGI [50] was > 100 µM, the GI50 [51] was 0.426 µM and the TGI [51] was > 100 µM. For the same compound, the GI50 [52] was 0.35 µM, the TGI [52] was > 100 µM and the GI50 [53] was 0.352 µM. The TGI [53] was 5.54 µM, the GI50 [54] was 0.461 µM and the TGI [54] was > 100 µM. For the same compound, the GI50 [55] was 0.437 µM, the TGI [55] was > 100 µM and the GI50 [56] was 0.39 µM. The TGI [56] was > 100 µM, the GI50 [57] was 0.35 µM and the TGI [57] was > 100 µM. For the same compound, the GI50 [58] was 0.393 µM and the TGI [58] was > 100 µM.

Compound `COc1cc2oc(-c3cccc(C(=O)Nc4ccc(Cl)cc4)c3)cc(=O)c2c(OCCN)c1OC` has a GI50 [1] of 4.06 µM, a TGI [1] of 20.7 µM and a GI50 [59] of 11.2 µM. It also gave a TGI [59] of 23.6 µM, a GI50 [2] of 4.18 µM and a TGI [2] of 18.1 µM. It also gave a GI50 [3] of 1.85 µM, a TGI [3] of 3.46 µM and a GI50 [4] of 4.02 µM. For the same compound, the TGI [4] was 16.2 µM, the GI50 [5] was 2.39 µM and the TGI [5] was 5.84 µM. The GI50 [6] was 2.82 µM, the TGI [6] was 8.51 µM and the GI50 [7] was 1.8 µM. For the same compound, the TGI [7] was 3.35 µM, the GI50 [8] was 1.73 µM and the TGI [8] was 3.41 µM. For the same compound, the GI50 [9] was 2.38 µM, the TGI [9] was 5.9 µM and the GI50 [10] was 13.4 µM. It also gave a TGI [10] of 30.3 µM, a GI50 [11] of 1.66 µM and a TGI [11] of 3.14 µM. It also gave a GI50 [12] of 10.6 µM, a TGI [12] of 22.4 µM and a GI50 [13] of 2.04 µM. The TGI [13] was 4.14 µM, the GI50 [14] was 13.6 µM and the TGI [14] was 30.9 µM. For the same compound, the GI50 [16] was 5.21 µM, the TGI [16] was 25.3 µM and the GI50 [17] was 1.64 µM. The TGI [17] was 3.03 µM, the GI50 [18] was 6.3 µM and the TGI [18] was 25.7 µM. It also gave a GI50 [19] of 11.8 µM, a TGI [19] of 31.9 µM and a GI50 [20] of 13 µM. The TGI [20] was 25.7 µM, the GI50 [21] was 2.37 µM and the TGI [21] was 6.58 µM. It also gave a GI50 [22] of 1.79 µM, a TGI [22] of 3.27 µM and a GI50 [23] of 5.14 µM. For the same compound, the TGI [23] was 18 µM, the GI50 [24] was 2.63 µM and the TGI [24] was 7.92 µM. For the same compound, the GI50 [25] was 1.52 µM, the TGI [25] was 3.03 µM and the GI50 [26] was 7.19 µM. It also gave a TGI [26] of 21.8 µM, a GI50 [27] of 11.8 µM and a TGI [27] of 29.7 µM. For the same compound, the GI50 [28] was 4.24 µM, the TGI [28] was 19.8 µM and the GI50 [29] was 3.77 µM. For the same compound, the TGI [29] was 11.7 µM, the GI50 [30] was 6.12 µM and the TGI [30] was 19 µM. It also gave a GI50 [31] of 2.28 µM, a TGI [31] of 5.62 µM and a GI50 [32] of 2.89 µM. The TGI [32] was 19.8 µM, the GI50 [33] was 1.72 µM and the TGI [33] was 3.33 µM. It also gave a GI50 [35] of 6.84 µM, a TGI [35] of 23.9 µM and a GI50 [36] of 2.09 µM. It also gave a TGI [36] of 16.5 µM, a GI50 [37] of 5.66 µM and a TGI [37] of 18.6 µM. The GI50 [38] was 1.48 µM, the TGI [38] was 2.8 µM and the GI50 [39] was 9.27 µM. For the same compound, the TGI [39] was 22 µM, the GI50 [40] was 10.1 µM and the TGI [40] was 24.1 µM. For the same compound, the GI50 [41] was 20.7 µM, the TGI [41] was 40.4 µM and the GI50 [42] was 3.13 µM. The TGI [42] was 10.2 µM, the GI50 [43] was 3.17 µM and the TGI [43] was 10.5 µM. For the same compound, the GI50 [44] was 1.82 µM, the TGI [44] was 4.19 µM and the GI50 [45] was 1.8 µM. For the same compound, the TGI [45] was 3.69 µM, the GI50 [46] was 4.09 µM and the TGI [46] was 19.4 µM. The GI50 [47] was 2.02 µM, the TGI [47] was 4 µM and the GI50 [48] was 3.23 µM. The TGI [48] was 12.7 µM, the GI50 [50] was 4.38 µM and the TGI [50] was 16.8 µM. For the same compound, the GI50 [51] was 1.82 µM, the TGI [51] was 3.65 µM and the GI50 [52] was 2.3 µM. The TGI [52] was 5.5 µM, the GI50 [53] was 6.22 µM and the TGI [53] was 19 µM. For the same compound, the GI50 [54] was 5.98 µM, the TGI [54] was 18.3 µM and the GI50 [55] was 3.03 µM. It also gave a TGI [55] of 12.6 µM, a GI50 [56] of 2.16 µM and a TGI [56] of 4.84 µM. The GI50 [57] was 4.02 µM, the TGI [57] was 13.9 µM and the GI50 [58] was 3.74 µM. For the same compound, the TGI [58] was 23.4 µM.
